Data: PubChem BioAssay AID1963420 (Molecular Pharmacology Branch, DTP, NCI, 2024)
Several values for one entry are separate records, joined by “and”; a condition that tells them apart may be missing. Equal entries are not always repeated. Each block holds one compound with its values, some of them ahead of it.

Test system: 494315-158-R-J1-PDC complex spheroid growth, percent test/control
Test: Anticancer human tumor 494315-158-R-J1-PDC patient-derived soft tissue sarcoma cell line growth inhibition [Asc]
Conditions: for viability, T/C: stronger effect = lower value
Procedure: Multicellular complex tumor spheroid response to apoptosis pathway targeting inhibitors Alrizomadlin, Pelcitoclax, and Dasminapant in combination with a variety of drugs and investigational agents in selected tumor cell lines
The MDM2 inhibitor alrizomadlin, the Bcl-2/Bcl-xL inhibitor pelcitoclax, and the IAPs inhibitor dasminapant were evaluated both individually and in combination with standard of care and investigational anticancer small molecules within a complex spheroid model of solid tumors. . Complex spheroids include a stromal component modeled by human endothelial cells (HUVEC) and fibroblasts modeled by human mesenchymal stem cells (MSCs). The concentration ranges selected for each drug and investigational agent were based upon clinically achievable concentrations if the clinical Cmax of the agent was known.
Compounds. The drugs and investigational agents: alrizomadlin (APG-115; NSC831270), pelcitoclax (APG-1252; NSC835773), dasminapant (APG-1387;NSC834197), TAK-243 (NSC785004), copanlisib (NSC809693), olaparib (NSC753686), talazoparib (NSC767125), cobimetinib (NSC 768068), eltanexor (KPT-8602, NSC 794443), abemaciclib (NSC 768073), sotorasib (NSC818433), adagrasib (NSC 831453), MRTX-1133 (NSC 836407), Iadademestat (ORY1001, NSC 806812), and RMC-4630 (NSC839698), were obtained from the NCI Developmental Therapeutics Program Chemical Repository. The FDA-approved anticancer drug set is available from the Developmental Therapeutics Program at https://dtp.cancer.gov/organization/dscb/obtaining/available plates.htm. […] The stock solutions were prepared in dimethyl sulfoxide (DMSO, Sigma-Aldrich, St. Louis, MO, cat. D2650) at 800-fold the tested concentration and stored at -70 degrees C prior to their use. All drugs and investigational agents were tested over a range starting from a high concentration at or near the clinical Cmax and decreasing in half-log increments. If the clinical Cmax for an agent had not been determined, the highest concentration tested was 10 microM.
The patient-derived cancer (PDC) cell lines include five colon adenocarcinomas: 186277-243-T-J2-PDC, 616215-338-R-J1-PDC, 439559-082-T-J2-PDC, 463943-066-T-J2-PDC, and 519858-162-T-J1-PDC; three pancreatic carcinomas: 323965-272-R-J2-PDC, 521955-158-R6-J3-PDC, and 521955-158-R2-J5-PDC; two uterine sarcomas: 327498-152-R-J2-PDC and 993429-296-R-J1-PDC; two rhabdomyosarcomas: 755483-174-R-J1-PDC and 772245-204-R-J1-PDC; two soft tissue sarcomas: 126254-015-R-J1-PDC and 494315-158-R-J1-PDC; two malignant fibrous histiocytomas: 317291-083-R-J1-PDC and 596521-263-R-J1-PDC; two breast carcinomas: 171881-019-R-J1-PDC and 885512-296-R-J2-PDC; and one ovarian carcinoma: 6556581-035-R-J-PDC were obtained from the NCI PDMR, (https://pdmr.cancer.gov). The established cell lines HSSY-2 synovial sarcoma (RRID:CVCL 8719), SYO-1 synovial sarcoma (RRID:CVCL_7146), MPNST malignant peripheral neural sheath tumor were obtained from the Sloan Kettering Institute. The following established cell lines were purchased from the American Type Culture Collection (ATCC, Manassas, VA), Sor the received from the NCI repository:, PANC-1 pancreatic carcinoma (CRL-1469, RRID:CVCL_0480), OVCAR-5 ovarian carcinoma (RRID:CVCL_1628), OVCAR-8 ovarian carcinoma (RRID:CVCL_1629), , MCF-7 breast carcinoma (CRL-12584, RRID:CVCL_0031), MDA-MB-231 breast carcinoma (CRL-12532, RRID:CVCL_0062), NCI-H1876 small cell lung carcinoma (CRL-5902, RRID:CVCL_1503), NCI-H510A small cell lung carcinoma (HTB-184, RRID:CVCL_1565), NCI-H1417 (CRL-5869, RRID:CVCL_1469), and NCI-H196 small cell lung carcinoma (CRL-5823, RRID:CVCL_1509). Dr. Peter Houghton (Greehey Children's Cancer Research Institute, University of Texas Health Science Center, San Antonio, TX) provided Rh-18 rhabdomyosarcoma (RRID:CVCL_1659). Pooled donor human umbilical vein endothelial cells (HUVEC, Lonza, cat. CC-2519) and human mesenchymal stem cells (hMSC, Lonza, cat. PT-2501) were purchased from Lonza (Walkersville, MD).
Cell Culture. […]

[1] = compound alone, run of 09/27/2022
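Also: compound exposure lasted seven days after spheroids formed for three days.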

IC50 (curve of compound): > 10000 nM
Compound: C#Cc1c(F)ccc2cc(O)cc(-c3ncc4c(N5CC6CCC(C5)N6)nc(OCC56CCCN5CC(F)C6)nc4c3F)c12 (stereo not drawn)
viability, T/C (compound 0.0316 µM): 107% and 98.9% and 87.7%
viability, T/C (compound 0.1 µM): 109% and 102% and 108%
viability, T/C (compound 0.316 µM): 107% and 98.4% and 99.9%
viability, T/C (compound 1 µM): 107% and 104% and 95.3%
viability, T/C (compound 3.16 µM): 120% and 97.1% and 100%
viability, T/C (compound 10 µM): 103% and 86.4% and 91.4%

IC50 (curve of compound): 3950 nM and 3360 nM and 4310 nM
Compound: C=C(F)C(=O)N1CCN(c2nc(OCC3CCCN3C)nc3c2CCN(c2cccc4cccc(Cl)c24)C3)CC1CC#N (stereo not drawn)
viability, T/C (compound 0.0316 µM): 89.2% and 99.6% and 84.3%
viability, T/C (compound 0.1 µM): 92.5% and 97.5% and 96.5%
viability, T/C (compound 0.316 µM): 88.7% and 82.5% and 97.6%
viability, T/C (compound 1 µM): 84.9% and 84.5% and 86.7%
viability, T/C (compound 3.16 µM): 62% and 51.7% and 68.6%
viability, T/C (compound 10 µM): 0.23% and 0.25% and 0.24%

IC50 (curve of compound): > 10000 nM
Compound: C=CC(=O)N1CCN(c2nc(=O)n(-c3c(C)ccnc3C(C)C)c3nc(-c4c(O)cccc4F)c(F)cc23)C(C)C1 (stereo not drawn)
viability, T/C (compound 0.0316 µM): 105% and 116% and 107%
viability, T/C (compound 0.1 µM): 109% and 108% and 91.3%
viability, T/C (compound 0.316 µM): 103% and 101% and 104%
viability, T/C (compound 1 µM): 113% and 112% and 105%
viability, T/C (compound 3.16 µM): 112% and 113% and 101%
viability, T/C (compound 10 µM): 98.8% and 110% and 109%

IC50 [1]: > 3000 nM
IC50 (curve of compound): > 3000 nM
Compound: CCN1C(C(=O)NC23CCC(C(=O)O)(CC2)CC3)C(c2cccc(Cl)c2F)C2(C(=O)Nc3cc(Cl)ccc32)C12CCCCC2 (stereo not drawn)
viability, T/C (compound 0.00949 µM): 86.2% and 96.4%

IC50 (curve of compound): > 1000 nM
Compound: CCN1CCN(Cc2ccc(Nc3ncc(F)c(-c4cc(F)c5nc(C)n(C(C)C)c5c4)n3)nc2)CC1
viability, T/C (compound 0.00316 µM): 86.4% and 118% and 98.1%
viability, T/C (compound 0.01 µM): 95.3% and 99.7% and 103%
viability, T/C (compound 0.0316 µM): 97.3% and 110% and 101%
viability, T/C (compound 0.1 µM): 94.9% and 96.2% and 93.2%
viability, T/C (compound 0.316 µM): 86.4% and 92.8% and 116%
viability, T/C (compound 1 µM): 87% and 91.4% and 104%

IC50 (curve of compound): 46.1 nM and 28.9 nM
Compound: CNC(C)C(=O)NC1CN(S(=O)(=O)c2cccc(S(=O)(=O)N3CCC4CCC(C(=O)NC(c5ccccc5)c5ccccc5)N4C(=O)C(NC(=O)C(C)NC)C3)c2)CCC2CCC(C(=O)NC(c3ccccc3)c3ccccc3)N2C1=O (stereo not drawn)
viability, T/C (compound 0.00316 µM): 79% and 74.7%
viability, T/C (compound 0.01 µM): 69.1% [middle of 15 runs]
viability, T/C (compound 0.0316 µM): 58.5% [middle of 15 runs]
viability, T/C (compound 0.1 µM): 51.9% [middle of 15 runs]
viability, T/C (compound 0.316 µM): 45% [middle of 15 runs]
viability, T/C (compound 1 µM): 39.2% [middle of 15 runs]

IC50 (curve of compound): 48 nM and 46 nM and 44.1 nM
Compound: COc1c(OCCCN2CCOCC2)ccc2c3n(c(=NC(=O)c4cnc(N)nc4)nc12)CCN3
viability, T/C (compound 0.00316 µM): 87.8% and 87% and 82.3%
viability, T/C (compound 0.01 µM): 79.6% and 80.4% and 82.8%
viability, T/C (compound 0.0316 µM): 56.8% and 58.9% and 54.3%
viability, T/C (compound 0.1 µM): 37% and 32% and 34%
viability, T/C (compound 0.316 µM): 20.7% and 21.1% and 18%
viability, T/C (compound 1 µM): 16.9% and 20.5% and 16.8%

IC50 [1]: > 10000 nM
Compound: Cc1c(S(C)(=O)=O)c(-c2cc(F)cc(N3CCN(c4ccc(NS(=O)(=O)c5ccc(NC(CCN6CCC(C(=O)OCCCP(=O)(O)O)CC6)CSc6ccccc6)c(S(=O)(=O)C(F)(F)F)c5)cc4)CC3)c2)c(-c2ccc(Cl)cc2)n1C(C)C (stereo not drawn)
viability, T/C (compound 0.1 µM): 77.8% [middle of 14 runs]
viability, T/C (compound 0.316 µM): 71.6% [middle of 14 runs]
viability, T/C (compound 1 µM): 65% [middle of 14 runs]
viability, T/C (compound 3.16 µM): 52.8% [middle of 14 runs]
viability, T/C (compound 10 µM): 73.2% [middle of 14 runs]

IC50 (curve of compound): > 3000 nM and 1520 nM and 1800 nM
Compound: Cc1nc(N2CCC3(CC2)COC(C)C3N)c(CO)nc1Sc1ccnc(N)c1Cl (stereo not drawn)
viability, T/C (compound 0.00949 µM): 105% and 96.7% and 89%
viability, T/C (compound 0.03 µM): 92.1% and 86.9% and 81.2%
viability, T/C (compound 0.0949 µM): 85.7% and 86% and 78.7%
viability, T/C (compound 0.3 µM): 92% and 75.2% and 66.9%
viability, T/C (compound 0.949 µM): 71.2% and 54.1% and 58.9%
viability, T/C (compound 3 µM): 54.9% and 42.4% and 43.2%

IC50 (curve of compound): > 100 nM
Compound: Cn1ncnc1[C@H]1c2n[nH]c(=O)c3cc(F)cc(c23)N[C@@H]1c1ccc(F)cc1
viability, T/C (compound 0.000316 µM): 84.6% and 103% and 102%
viability, T/C (compound 0.001 µM): 85.7% and 93.6% and 83.1%
viability, T/C (compound 0.00316 µM): 83.3% and 95.1% and 85%
viability, T/C (compound 0.01 µM): 73.3% and 73.7% and 87.7%
viability, T/C (compound 0.0316 µM): 66.1% and 69.2% and 73.8%
viability, T/C (compound 0.1 µM): 67.4% and 65.3% and 60.4%

IC50 (curve of compound): 94.2 nM and 65.9 nM and 94.4 nM
Compound: NC(=O)C(=Cn1cnc(-c2cc(C(F)(F)F)cc(C(F)(F)F)c2)n1)c1cncnc1
viability, T/C (compound 0.000949 µM): 88.9% and 102% and 89.1%
viability, T/C (compound 0.003 µM): 93.4% and 99.6% and 101%
viability, T/C (compound 0.00949 µM): 79.4% and 90.6% and 81.3%
viability, T/C (compound 0.03 µM): 73.1% and 71.5% and 74%
viability, T/C (compound 0.0949 µM): 49.7% and 40.1% and 50.4%
viability, T/C (compound 0.3 µM): 13.5% and 13.7% and 12.4%

IC50 (curve of compound): > 100 nM
Compound: NC1CCC(NC2CC2c2ccccc2)CC1 (stereo not drawn)
viability, T/C (compound 0.000316 µM): 89% and 106% and 94%
viability, T/C (compound 0.001 µM): 76.7% and 90.3% and 92.3%
viability, T/C (compound 0.00316 µM): 75.3% and 86% and 84.9%
viability, T/C (compound 0.01 µM): 89% and 91.7% and 90.7%
viability, T/C (compound 0.0316 µM): 93.3% and 81.8% and 96.3%
viability, T/C (compound 0.1 µM): 88.3% and 94.6% and 95.1%

IC50 (curve of compound): > 10000 nM
Compound: O=C(c1cc(Cc2n[nH]c(=O)c3ccccc23)ccc1F)N1CCN(C(=O)C2CC2)CC1
viability, T/C (compound 0.0316 µM): 83.7% and 85.7% and 88.2%
viability, T/C (compound 0.1 µM): 101% and 95% and 86.5%
viability, T/C (compound 0.316 µM): 76.7% and 88.8% and 89.9%
viability, T/C (compound 1 µM): 83.8% and 84.5% and 81.4%
viability, T/C (compound 3.16 µM): 69.5% and 85.8% and 85.3%
viability, T/C (compound 10 µM): 52.3% and 55.7% and 50%

IC50 (curve of compound): > 1000 nM
Compound: O=C(c1ccc(F)c(F)c1Nc1ccc(I)cc1F)N1CC(O)([C@@H]2CCCCN2)C1
viability, T/C (compound 0.00316 µM): 92.8% and 93% and 99.5%
viability, T/C (compound 0.01 µM): 111% and 90% and 99.1%
viability, T/C (compound 0.0316 µM): 108% and 106% and 90.2%
viability, T/C (compound 0.1 µM): 124% and 100% and 114%
viability, T/C (compound 0.316 µM): 98.4% and 90% and 111%
viability, T/C (compound 1 µM): 57.7% and 54.8% and 65.7%
